US12416018B2, “Regulation of gene expression by aptamer-mediated modulation of alternative splicing” (MEIRAGTX GENE REGULATION LIMITED, priority 2015, dated 2025)
Entries after “also recorded” stand apart in the source; their conditions may differ. Where two headings read alike, the source gives them in different places. Blank lines part the entries; values can stand above or below the molecule they belong to.

Experiments:
[1] = test system: luciferase expression in HEK 293 cells; assay type: cell-based; conditions: for induced luciferase level as percent of Con1 (maximal expression): guanine treatment (500 μM), HEK 293 cells; for fold induction of luciferase expression over un-induced baseline: 500 µM; for regulation of luciferase expression by guanine (in words): with or without 500 μM guanine
Method: (§1) Xpt-guanine aptamer with the following sequence: cactcatataat[…]cgact atgggtg (SEQ ID NO.: 10), was used to construct a riboswitch. Oligos containing the sequence of guanine aptamer and hairpin stem with 4 nucleotide 5′ overhang were synthesized (IDT), annealed and then ligated to BsaI-digested DHFR-acceptor vector. HEK 293 cells were transfected as described in Example 1. Four hours after transfection, the media was aspirated, and new media with or without 500 μM guanine was added. Luciferase expression was assayed 20 to 24 hrs after guanine treatment as described in Example 1 and Example 4. HepG2, AML12, RD and C2C12 (ATCC) were cultured using the protocol recommended by ATCC. The intron-exon-intron cassette containing the xpt-G17 riboswitch (SEQ ID NO.: 15) was inserted in the leader peptide sequences of the anti-KDR antibody gene and into the Stul site in mouse erythropoietin gene using Gibson cloning strategy (NEB). Constructs containing mouse erythropoietin (Epo) or anti-KDR antibody were transfected into HEK 293 cells. Four hour after transfection, the media was aspirated, and new media with or without 500 μM guanine was added. Supernatants were subjected to ELISA assay for the production of either anti-KDR antibody or the production of mouse Epo (R&D Systems).
(§2) Constructs were made using Golden Gate cloning strategy (NEB). […] Luciferase activity was assayed as described in Example 5.
The Con1 construct was used as a template for PCR amplification of intron fragments that have either upstream or downstream intron deletions. To generate constructs that have single intron deletions, PCR products were cloned into the constructs containing the xpt-G17 riboswitch using Golden Gate cloning strategy (NEB). To generate constructs with both upstream and downstream intron deletions, fragments released by EcoRI and BamHI from constructs with single deletions in the downstream intron sequence were cloned into EcoRI and BamHI-digested constructs with single deletions in the upstream intron sequence.
Sequences of mutant human Wilms tumor 1 exon 5 (mutWT1-e5, SEQ ID NO.: 61), SIRT1 exon 6 (SIRT1-e6, SEQ ID NO.: 62), mouse calcium/calmodulin-dependent protein kinase II delta exon 16, or 17 (Camk2d-e16 or e17, SEQ ID NOs.: 59, 60), and synthetic exon ENEEE (SEQ ID NO.: 63) were synthesized (IDT) and cloned into the DHFR-G17 vector in place of the DHFR exon using Gibson Cloning kit (NEB). Plasmid DNA was transfected into HEK 293 cells, treated with 500 μM guanine, and luciferase assay performed as described in Example 1. The sequences of each exon with 5′ and 3′ splice sites are shown with exonic sequences in uppercase letters (Table 5, SEQ ID NOS.: 59 to 63).

[2] = test system: luciferase expression in HEK 293 cells; assay type: cell-based; conditions: for luciferase expression with / without theophylline (in words): HEK 293 cells
Text: A DHFR-acceptor vector was constructed to facilitate the cloning of an aptamer sequence attached to the hairpin stems with different length. The theophylline aptamer sequence used was: ggcgatac[…]gcagegtc (SEQ ID NO:9). Theophylline aptamer oligonucleotides (“oligos”) with 4 nucleotide overhang at 5′ end were synthesized (IDT), annealed and ligated to BsaI-digested DHFR-acceptor vector. HEK 293 cells were transfected with the luciferase reporter constructs with the regulation cassette containing the theophylline aptamer, as described in Example 1. Four hours after transfection, the media was aspirated, and new media with or without 3 mM theophylline was added, and luciferase was assayed 20 to 24 hours after theophylline treatment. The fold induction was expressed as the quotient of luciferase activity obtained in the presence of aptamer ligand divided by the value obtained in the absence of the aptamer ligand.

[3] = test system: luciferase expression in HepG2 cells; assay type: cell-based
Method: as §1

[4] = test system: luciferase gene with two copies of the xpt-G15 containing regulatory cassette (xpt-G15 double); assay: Live animal bioluminescence imaging after hydrodynamic DNA delivery to mouse liver; assay type: in vivo, mice
Method: Hydrodynamic DNA delivery and drug treatment: 5 μg or 10 μg of endotoxin-free plasmid DNA containing the luciferase gene with two copies of the xpt-G15 containing regulatory cassette (xpt-G15 double, SEQ ID NO.: 64; Example 8, FIG. 8a), diluted in saline (Qiagen Endofree kit) was injected through tail vein in a volume of 10% body weight over 5 to 10 seconds to 6-7 weeks old CD-1 female mice. Guanosine (Sigma) was suspended in 0.5% methylcellulose/0.25% Tween 80 (Sigma) in water freshly and administrated orally at 2 hr and 12 hr post DNA injection, or, delivered through intraperitoneal injection (IP) at 5 hr, 12 hr, 16 hr and 24 hr post DNA delivery.
Noninvasive live animal bioluminescence imaging: before imaging, mice were anesthesized with 2% isoflurane, and injected with […] body weight of luciferin, and images were taken within 2 to 5 minutes after luciferin injection using Bruker Xtreme system at the indicated time point post DNA injection. Luciferase activity was expressed as mean photon/sec±s.d. The induction fold was calculated as the quotient of photon/sec obtained in mice treated with guanosine divided by value obtained in mice without guanosine treatment.

xpt-G15 double cassette = assay: Guanine dose response of luciferase expression, xpt-G15 double; assay type: cell-based
Method: as §2

[5] = test system: xpt-G17 containing cassette; assay: Guanine dose response of luciferase expression, single xpt-G17 cassette; assay type: cell-based; conditions: single copy xpt-G17 cassette
Method: as §2

[6] = test system: anti-KDR antibody production in HEK 293 cells; assay type: cell-based; conditions: 500 μM guanine
Method: as §1

[7] = test system: EGFP expression in HEK 293 cells; assay: Flow cytometry / imaging of EGFP with regulatory cassettes in HEK 293 cells; assay type: cell-based; conditions: stably transfected HEK 293, 500 μM guanine
Method: The intron-mtDHFR-aptamer-intron cassette was PCR amplified and cloned using Golden Gate cloning strategy (NEB) into pEGFP-C1 vector. To obtain a cell line stably expressing EGFP with riboswitch, HEK-293 cells were electroporated with 20 ng of plasmid DNA. Forty eight hours after electroporation, cell culture was selected with 800 μg/ml G418 for 2 weeks for cells that stably express the cassette. Cells were trypsinized and cell suspension was subjected to flow cytometric analysis of intensity of GFP fluorescence using a Guava EasyCyte 8HT machine. The resulting data was analyzed using GuavaSoft2.2.2.
as §2

Molecule: DHFR_G14: luciferase construct with xpt-guanine aptamer cassette, truncated stem (chain 1 GTAGAAGGTAATGTGATAT; chain 2 CTATCACATTACGCAC; expressed or natural sequence)
- induced luciferase level as percent of Con1 (maximal expression) [1]: ~100%

Molecule: DHFR_G15: luciferase construct with the xpt-G15 containing regulatory cassette (SEQ ID NO: 46) (chain 1 GTAGAAGGTAATGTGTAT; chain 2 CTACACATTACGCAC; chemistry not fully specified)
- fold induction of luciferase expression over un-induced baseline [1]: 60 fold
- induced luciferase level as percent of Con1 (maximal expression) [1]: ~100%

Molecule: DHFR_Theo14: theophylline aptamer cassette, 7 bp stem (chain 1 TTCAGTAGAAGGTAATGTA; chain 2 GACATTACGCACCAT; expressed or natural sequence)
- luciferase expression with / without theophylline (in words) [2]: no luciferase expression either with or without theophylline

Molecule: DHFR_G17: luciferase construct containing xpt-G17 regulatory cassette (SEQ ID NO: 15) (chain 1 GTAGAAGGTAATGTAT; chain 2 CTACATTACGCAC; chemistry not fully specified)
- induced luciferase level as percent of Con1 (maximal expression) [1]: about 65%
- fold induction of luciferase expression [3]: more than 500 fold

Molecule: DHFR_G16: luciferase construct with xpt-guanine aptamer cassette, truncated stem (chain 1 GTAGAAGGTAATGTTAT; chain 2 CTAACATTACGCAC; chemistry not fully specified)
- fold induction of luciferase expression over un-induced baseline [1]: about 800 fold
- induced luciferase level as percent of Con1 (maximal expression) [1]: 83%

Molecule: DHFR_Theo13: theophylline aptamer cassette, 8 bp stem (chain 1 TTCAGTAGAAGGTAATGTGA; chain 2 GCACATTACGCACCAT; chemistry not fully specified)
- luciferase expression with / without theophylline (in words) [2]: luciferase expression is suppressed in the absence of theophylline
- luciferase level as percent of Con1 control vector ([2]; in the presence of theophylline (3 mM)): about 56%

Molecule: Nc1nc2c(ncn2[C@@H]2O[C@H](CO)[C@@H](O)[C@H]2O)c(=O)[nH]1 [guanosine]
- fold induction at 100 mg/kg ([4]; Mus musculus, ip, 100 mg/kg guanosine intraperitoneally, 11 hours post DNA injection, read-out: fold induction of luciferase compared to uninduced baseline): 4.7
- fold induction at 300 mg/kg ([4]; Mus musculus, ip, 300 mg/kg guanosine intraperitoneally, 11 hours post DNA injection, read-out: fold induction of luciferase compared to uninduced baseline): 16.2
- luciferase expression in liver after oral guanosine (in words) ([4]; oral dosing 2 hr and 12 hr after DNA delivery): higher luciferase expression at 9 hours post DNA; also recorded: dose related activation of expression of the regulated target gene in the liver of the mice
- time of highest luciferase expression post DNA injection ([4]; oral guanosine): 48 h

- EC50 for xpt-G15 double relative to single xpt-G17 (times lower) (xpt-G15 double cassette; xpt-G15 double vs xpt-G17): 5 times
- EC50 (xpt-G15 double cassette; xpt-G15 double, luciferase): 43 µM
- EC50 [5]: 206 µM
Molecule: Nc1nc2nc[nH]c2c(=O)[nH]1 [guanine]

B1: xpt-G17: intron-exon-intron cassette containing the xpt-G17 guanine riboswitch, SEQ ID NO: 15, inserted in various target genes (nucleic acid)
DNA: GTGAGTCTATGGGACCCTTGATGTTTTCTTTCCCCTTCTTTTCTATGGTTAAGTTCATGTCATAGGAAGGGGAGAAGTAACAGGGTACACATATTGACCAAATCAGGGTAATTTTGCATTTGTAATTTTAAAAAATGCTTTCTTCTTTTAATATACTTTTTTGTTTATCTTATTTCTAATACTTTCCCTAATCTCTTTCTTTCAGGGCAATAATGATACAATGTATCATGCCGAGTAACGCTGTTTCTCTAACTTGTAGGAATGAATTCAGATATTTCCAGAGAATGAAAAAAAAATCTTCAGTAGAAGGTAATGTATAATCGCGTGGATATGGCACGCAAGTTTCTACCGGGCACCGTAAATGTCCGACTACATTACGCACCATTCTAAAGAATAACAGTGATAATTTCTGGGTTAAGGCAATAGCAATATTTCTGCATATAAATATTTCTGCATATAAATTGTAACTGATGTAAGAGGTTTCATATTGCTAATAGCAGCTACAATCCAGCTACCATTCTGCTTTTATTTTATGGTTGGGATAAGGCTGGATTATTCTGAGTCCAAGCTAGGCCCTTTTGCTAATCATGTTCATACCTCTTATCTTCCTCCCACAG
modifications: xpt-G17 riboswitch
- induced antibody expression as percent of control construct containing the Con 1 intron sequences [6]: about 40%
- time after guanine treatment at which fluorescence was detected [7]: 6 h

B2: Camk2d-e16: DHFR-G17 vector with mouse calcium/calmodulin-dependent protein kinase II delta exon 16 in place of DHFR exon; SEQ ID NO: 59 (nucleic acid)
DNA: GAGTAACGCTGTTTCTCTAACTTGTAGTGAGCCCCAAACTACTGTAATCCACAACCCTGACGGAAACAAGGTAATGT
- regulation of luciferase expression by guanine (in words) ([1]; listed as CaMKIId-e16): equivalent fold induction to the DHFR exon with SRp40 activating mutation (mtDHFR)
- regulation of luciferase expression by guanine (in words) ([1]; listed as CamkIId-e16): nearly equivalent fold induction compared to DHFR-xpt-G17

B3: 2IR-3: xpt-G17 cassette, two intron deletions; SEQ ID NO: 31 (nucleic acid)
DNA: GTGAGTCTATGGGACCCTTGATGTTTTCTTTCCCTGCTCAAATCAGGGTAATTTTGCATTTGTAATTTTAAAAAATGCTTTCTTCTTTTAATATACTTTTTTGTTTATCTTATTTCTAATACTTTCCCTAATCTCTTTCTTTCAGGGCAATAATGATACAATGTATCATGCCGAGTAACGCTGTTTCTCTAACTTGTAGGAATGAATTCAGATATTTCCAGAGAATGAAAAAAAAATCTTCAGTAGAAGGTAATGTATAATCGCGTGGATATGGCACGCAAGTTTCTACCGGGCACCGTAAATGTCCGACTACATTACGCACCATTCTAAAGAATAACAGTGATAATTTCTGGGTTAAGGCAATAGCTGCTGAGGTTTCATATTGCTAATAGCAGCTACAATCCAGCTACCATTCTGCTTTTATTTTATGGTTGGGATAAGGCTGGATTATTCTGAGTCCAAGCTAGGCCCTTTTGCTAATCATGTTCATACCTCTTATCTTCCTCCCACAG
modifications: xpt-G17-2IR-3
- fold induction of luciferase expression over un-induced baseline [1]: 4744 fold
- regulation of luciferase expression by guanine (in words) [1]: significant increase in the fold of target gene expression
